Test results as given in patent US20130296430A1, “COMPOSITIONS AND METHODS FOR TREATING AUTISM AND AUTISM SPECTRUM DISORDER” (priority 2012, published 2013).

Tests used:
children with autism = test: 12-week placebo-controlled study of NAC: Repetitive Behavior Scale-Revised (RBS-R); assay type: in vivo, human
Description: The Repetitive Behavior Scale-Revised (RBS-R) (Bodfish et al., The Repetitive Behavior Scale: A test manual (1998)) is an empirically derived clinical rating scale for measuring the presence and severity of a variety of forms of restricted, repetitive behavior that are characteristic of individuals with autism. The RBS-R consists of 6 subscales: stereotyped behavior, self-injurious behavior, compulsive behavior, routine behavior, sameness behavior, and restricted behavior. The scale provides an overall raw score for severity of repetitive behaviors and separate measures of severity for each subtype of repetitive behavior. High scores indicate more severe behavioral symptoms.
A 12-week, double-blind randomized, placebo-controlled study of NAC in children with autism was conducted in the Autism & Developmental Disabilities Clinic in the Division of Child & Adolescent Psychiatry at Stanford University Medical Center. The recruitment period started in March 2009 and ended in September 2010. Subjects with and without mental retardation were included. After obtaining informed consent, subjects were screened and inclusion and exclusion criteria were assessed. No changes in eligibility criteria were applied throughout the study. This investigation was approved by the institutional review board at Stanford University School of Medicine. An investigational new drug application (IND#100905) was filed with the Food and Drug Administration, and the study was registered in National Institutes of Health at ClinicalTrials.gov (identifier number NCT00627705).
After the screening phase, baseline measures were obtained from subjects continuing to meet inclusion and exclusion criteria. Subjects were then randomized to either placebo or active based on age and gender. As NAC is a nutritional supplement, the quality control is predictably variable and therefore purity is not as stringent as prescription medications. Therefore, in the present study, the stability of the compound was ascertained and the integrity of the active agent was protected by packaging each NAC doses in individual pockets. The active compound and matching placebo were provided by BioAdvantex Pharma, Inc. (Mississauga, Ontario, Canada). […] Subjects randomized to the active drug were initiated at the dose of 900 mg every day for the first 4 weeks, then 900 mg twice daily for 4 weeks and 900 mg three times daily for 4 weeks. […]
If a subject could not tolerate a specific dose, s/he would be maintained at the highest tolerated dose. Subjects were evaluated at baseline, week 4, week 8 and week 12. […]

[1] = cited from earlier work

Question: Which “RBS total, Mean (SD)” value (children with autism; Baseline (before treatment), NAC group n = 15) does the source give for `CC(=O)N[C@@H](CS)C(=O)O` [NAC, N-acetylcysteine] here?
Answer: 33.1 (16.2)

Question: And the “RBS total, Mean (SD)” value (children with autism; Week 12, NAC n = 14)?
Answer: 22.3 (12.0)

Question: And the “RBS-Total, treatment effect” value (children with autism; all randomized participants, NAC vs placebo, p=0.015)?
Answer: significant improvement

Question: What about the “RBS total, Cohen's d” value (children with autism; standardized mean difference NAC vs placebo at Week 12) of the same compound?
Answer: .57

Question: What about the “solubility relative to cystine” value ([1]; compared with the stable cysteine disulfide, cystine) of the same compound?
Answer: much more soluble

Question: And the “stability relative to cysteine” value ([1]; more stable than cysteine)?
Answer: about 10 times
